BindingDB's records for doi:10.1016/j.bmcl.2012.12.050 (Actelion Pharmaceuticals, 2013)

Assay: Antagonist activity against CRTh2 receptor in human eosinophils assessed as cell shape change

IC50: 160 nM
Structure (SMILES): N#C/C(=C\c1cn(CC(=O)O)c2ccccc12)C(=O)N1CCCc2ccccc21
